The results in this text go back to patent US20250345316A1, “METHODS OF INCREASING LYMPHOCYTE TRAFFICKING TO THE COLON BY STIMULATING RETINOIC ACID RECEPTORS AND ARYL HYDROCARBON RECEPTORS” (President and Fellows of Harvard College, priority 2024, published 2025).

Assay [1] relates to OT-1 cells (antigen-specific CD8+ T cells). The assay can be described thus: OT-1 in vivo assay (parenteral immunization): OT-1 cells in tissues by flow cytometry. More on the design: species or system mice. As to conditions: for OT-1 effector cells in the colon and cecum: B6 mice, OVA+CpG s.c. day 0, Am80 500 nmol, 10-CL-BBQ 164 nmol s.c. day 0, 1, 2; for OT-1 effector cells in the colon and cecum / OT-1 cells in the small intestine: day 7; for OT-1 cells in the small intestine: same regimen; for CD8+ T cell trafficking to the small intestine / tissue residence: supplementation. The protocol:
OT-1 in vivo Assay (Parenteral Immunization): Mice were adoptively transferred with OT-1 cells, and subsequently immunized with […] chicken ovalbumin (OVA) and an adjuvant CpG-1668 (0.5 nmol). On day 0.1 and 2, mice were injected s.c. with solvent control (DMSO, 10% v/v in PEG-400), retinoic acid receptor agonist Am80 (500 nmol in PEG-400), AHR agonist 10-CL-BBQ (164 nmol in PEG-400), or Am80+10-CL-BBQ (same dose). At timepoints defined by individual experiments, tissues were harvested and analyzed.
Preparing intestinal samples for flow cytometry: Small intestine (duodenum to ileum) was dissected out and flushed. Peyer's patches and fat were removed, and the tissue was cut into 4-5 pieces, and flipped to expose the luminal surface. Colon and cecum were dissected out, flushed and cut open longitudinally.
(§1) Cell Count and Flow Cytometry and Cell Count: For cell counting, samples were diluted and counted on a BD Accuri C6 Plus cytometer. For flow cytometry, samples were run on a Beckman CytoFLEX cytometer, and analysis was done using Flow Jo software V10.
The experimental approach is shown in the schematic in FIG. 2. Antigen-specific CD8+ T cells (OT-1 cells, recognizing a peptide within the chicken ovalbumin protein) were adoptively transferred (1×10^5 cells) to B6 recipient mice on day −1, and B6 recipients were vaccinated subcutaneously (s.c.) on day 0 with 100 μg chicken ovalbumin (OVA) and an adjuvant CpG-1668 (0.5 nmol). On day 0.1 and 2, mice were injected subcutaneously with solvent control (DMSO, 10% v/v in PEG-400), retinoic acid receptor agonist Am80 (500 nmol in PEG-400), AHR agonist 10-CL-BBQ (164 nmol in PEG-400), or Am80+10-CL-BBQ (same dose). Tissues were harvest on day 7 and analyzed by flow cytometry.
(Flow cytometry measures light scatter and fluorescence of single cells or particles in a stream.)

In assay [2] the test system is α4β7, GPR15 and CCR9 on OT-1 cells. As to the kind of experiment: OT-1 in vivo assay: expression of gut homing molecules on OT-1 cells in blood and draining lymph nodes. More on the design: species or system mice. Particulars: for GPR15 on OT-1 cells (effector CD8+ T cells): day 4 blood, L-KYN 500 nmol in PEG-400; for α4β7 and CCR9 expression: subcutaneous vaccination model, supplementation. Here is the method:
At timepoints defined by individual experiments, tissues were harvested and analyzed.
as §1
The experimental approach is shown in the schematic in FIG. 2. […] Tissues were harvest on day 7 and analyzed by flow cytometry.

In the next assay the test system is OT-1 cells. The assay can be described thus: Short-term competitive homing of OT-1 cells. The class given is in vivo, mice. Particulars: 5×10^6 cells from each treatment transferred into naïve B6 recipients; without Am80. The protocol: Short-term Competitive Homing: OT-1 cells, either in vitro or in vivo generated, were distinguished by congenic markers CD45.1/CD45.2, mixed at around 1:1 ratio and adoptively transferred into recipient animals. At 20-24 hours post transfer, mice were sacrificed, and tissues were harvested for analysis. Ratio of transferred cells were obtained, and homing index was calculated.
Briefly, two GFP+OT-1 transgenic mice with or without expression of the congenic marker CD45.1 were used per experiment (mouse A and mouse B), and OT-1 cells were isolated from their spleens. OT-1 cells from different mice ([A] and [B]) were subjected to different treatments (A and B, including culture, genetic manipulation, in vivo activation and re-harvesting, etc). The cells were then mixed at an around 1:1 ratio and injected into a B6 recipient (GFP−). At timepoints (determined for each experiment), with or without additional in vivo treatments (determined by each experiment), tissues were analyzed by flow cytometry and the ratio of [A] and [B] in each tissue was obtained. Homing index and normalized homing index (see equation) were calculated.
As a supplementation to in vitro approaches, the gut homing capacity of in vivo generated effector T cells was tested in the disclosed vaccination strategy. […]

Another assay deals with AHR. The assay can be described thus: CRISPR knockout of AHR in OT-1 cells, co-transfer with control cells. The class given is in vivo, mouse. The text has this:
CRISPR Knockout of AHR and GPR15: Naïve GFP+OT-1 cells were isolated with mouse CD8a+ T Cell Isolation Kit (Miltenyi) and nucleofected with Cas9 protein, complexed with either control (CD19) gRNA, or GPR15 gRNA. gRNAs were designed using Synthego online tool and synthesized by Synthego. The procedure was done using a Lonza nucleofector, with the P3 Primary cell Kit. Cells were distinguished based on expression of congenic marker CD45.1 and co-transferred into recipient mice. Recipient mice were immunized, and tissues were analyzed at different timepoints.
Loss of AHR abrogated ligand-depended upregulation of GPR15. Naïve GFP+OT-1 cells were nucleofected with Cas9 protein, complexed with either control (CD19) gRNA, or AHR gRNA. Transfected cells were distinguished based on expression of congenic marker CD45.1 and co-transferred into recipient mice. Recipient mice were immunized with OVA+CpG, and injected with DMSO, Am80, 10-CL-BBQ or Am80+10-CL-BBQ (same dose and regimen as previously described). Flow cytometry plots, gated on OT-1 cells. […] Quantification is shown of GPR15+, α4β7+ and CCR9+ cells, percentage out of OT-1 cells in respective groups (FIGS. 21B-21D). […] Control cells used were CD45.1^− and […] cells were CD45.1+.

Assay [3] relates to OT-1 cells (antigen-specific CD8+ T cells). As to the kind of experiment: OT-1 in vivo assay (parenteral immunization): OT-1 cells in tissues by flow cytometry. More on the design: species or system mice.
The test system of the next assay is OT-1 CD8+ T cells. The assay can be described thus: OT-1 in vitro culture to generate GPR15+CD8+ T cells. The class given is cell-based, mouse. As to conditions: day 4 post activation. The protocol:
OT-1 in vitro Culture: OT-1 splenocytes were pulsed for 1 hour with 1 μg OVA peptide (257-264) and cultured overnight in complete T cell (RPMI) media. The next day, CD8+ T cells were isolated using mouse CD8a+ T Cell Isolation Kit (Miltenyi) and cultured with various treatment conditions.
Various treatment conditions were tested for the efficiency of generating GPR15^+CD8^+ T cells. OT-1 splenocytes were pulsed for 1 hour with 1 μg OVA peptide (257-264) and cultured overnight in complete RPMI media. The next day, CD8^+ T cells were isolated using mouse CD8a^+ T Cell Isolation Kit (Miltenyi) and cultured with various treatment conditions. […] 4 days post activation. Plots were pre-gated on CD8a^+ cells. […] GPR15^+ T cells peaked around 4-5 days post activation. Cells were treated with IL-2+10-CL-BBQ+TGF-β1.

Where [4] appears, read: 10 nM ATRA added concurrently with IL-2+TGF-β1+10-CL-BBQ.

As for `O=c1c2cccc3cccc(c32)c2nc3ccc(Cl)cc3n12` [10-CL-BBQ, 10-Chloro-7H-benzimidazo[2,1-a]benzl[de]isoquinolin-7-one], in assay [1], the “OT-1 effector cells in the colon and cecum” value is recorded as “some increase”; the “OT-1 cells in the small intestine” value was “no effect”. The “GPR15 expression on OT-1 cells in the blood” value in assay [2] (blood, day 4-6) is “most robust”. Further, in assay [2] (blood, day 5), the “GPR15 expression on CD8a+ cells of the recipient (mostly naïve)” value is given as “did not affect” and the “GPR15 on adoptively transferred OT-1 cells (effector phase)” value was “up-regulated”. Further, the “GPR15 on OT-1 cells (effector CD8+ T cells)” value in assay [2] is “significantly up-regulated”. Moreover, the “trafficking of in vitro cultured cells to small and large intestine” value with OT-1 cells is recorded as “did not constitute trafficking”. The “GPR15 on OT-1 cells nucleofected with AHR gRNA” value in the assay with AHR (day 5 blood, compared to control gRNA cells) was “not 10-CL-BBQ dependent upregulation”. In addition, the “representation of AHR KO cells in the colon and cecum (ratio [Ctrl] to [AHR knockout], normalized to spleen)” value with AHR (day 7 post immunization) is given as “under-represented”.
Consider `FC(F)(F)c1ccc(Nc2nccc(-c3cccc(Cl)c3)n2)cc1` [VAF347], for which the “colon trafficking (OT-1 cells out of total CD8+ T cells)” value in assay [3] (250 nmol in PEG-400) is “increased colon trafficking but at a lower efficacy than 10-CL-BBQ”.
For `Nc1ccccc1C(=O)C[C@H](N)C(=O)O` [L-KYN, L-kynurenine], the “colon trafficking (OT-1 cells out of total CD8+ T cells)” value in assay [1] (alone) and in assay [1] (in combination with Am80) was “did not increase” in each case. The “GPR15 on OT-1 cells (effector CD8+ T cells)” value in assay [2] is “did not increase”.
In the case of `CC1(C)CCC(C)(C)c2cc(NC(=O)c3ccc(C(=O)O)cc3)ccc21` [Am80, 4-[[(5,6,7,8-Tetrahydro-5,5,8,8-tetramethyl-2-naphthalenyl)amino]carbonyl]benzoic acid], in assay [1], the “OT-1 effector cells in the colon and cecum” value is “some increase”; the “OT-1 cells in the small intestine” value is listed as “increased”. In assay [1] (subcutaneous vaccination model), the “optimal trafficking to the large intestine” value is listed as “not sufficient”, the “CD8+ T cell trafficking to the small intestine” value is “increased” and the tissue residence entry is recorded as “promoted”. Further, the “α4β7 and CCR9 expression” value in assay [2] is given as “increased”.
`Cc1ccccc1N=Nc1ccc(NC(=O)c2ccnn2C)c(C)c1` [CH-223191]: the “effects of 10-CL-BBQ on colon trafficking” value in assay [3] (250 nmol in PEG-400, given with 10-CL-BBQ) was “antagonized”.
As to `CC1=C(/C=C/C(C)=C/C=C/C(C)=C/C(=O)O)C(C)(C)CCC1` [ATRA, 3,7-Dimethyl-9-(2,6,6-trimethyl-1-cyclohexen-1-yl)-2E,4E,6E,8E,-nonatetraenoic acid], in assay [1] (subcutaneous vaccination model), the “CD8+ T cell trafficking to the small intestine” value was “increased” and the tissue residence result was “promoted”. Besides, the “α4β7^high GPR15+ population” value with OT-1 CD8+ T cells (10 nM ATRA added 24-48 hours after IL-2+TGF-β1+10-CL-BBQ) was “enabled the generation of an α4β7^high GPR15+ population”. In the assay with OT-1 CD8+ T cells (setting [4]), the GPR15 expression entry is reported as “completely abrogated” and the “trafficking phenotype (α4β7, CCR9)” value was “skewed cells towards a small intestine trafficking phenotype”. Also, in assay [2], the “α4β7 and CCR9 expression” value is listed as “increased”.
